In patent US6737383B1, “Herbicidal oxadiazolidines” (priority 1999, dated 2004):

Legend:
[1] = test system: giant foxtail; test: Test B pre/postemergence giant foxtail; format: in vivo, Setaria faberii
Method in brief: (§1)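 Herbicidal effect was estimated by eye on a ten-point control scale after plants spent twelve to sixteen days in a greenhouse following soil or foliar treatment. Foliar sprays targeted plants at one to four leaves; all doses were formulated in a non-phytotoxic solvent with surfactant.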

[2] = test system: corn; test: Test B pre/postemergence corn; format: in vivo, Zea mays
Method in brief: as §1

[3] = test system: rape; test: Test B pre/postemergence rape; format: in vivo, Brassica napus
Method in brief: as §1

[4] = test system: crabgrass; test: Test B pre/postemergence crabgrass; format: in vivo, Digitaria sanguinalis
Method in brief: as §1

[5] = test system: bedstraw; test: Test B pre/postemergence bedstraw; format: in vivo, Galium aparine; conditions: Preemergence
Method in brief: as §1

[6] = test system: rice; test: Test B flood test rice; format: in vivo, Oryza sativa
Method in brief: (§2)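 Each value is a visual injury score relative to controls, with 10 meaning complete control and 0 no effect. Evaluation took place twelve to sixteen days after the 2-leaf-stage plants were treated and kept in the greenhouse.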

[7] = test system: wild oat; test: Test B pre/postemergence wild oat; format: in vivo, Avena fatua
Method in brief: as §1

[8] = test system: wheat; test: Test B pre/postemergence wheat; format: in vivo, Triticum aestivum
Method in brief: as §1

[9] = test system: bamyardgrass; test: Test B flood test barnyardgrass; format: in vivo, Echinochloa crus-galli
Method in brief: as §2

[10] = test system: purple nutsedge; test: Test B pre/postemergence purple nutsedge; format: in vivo, Cyperus rotundus
Method in brief: as §1

[11] = test system: morningglory; test: Test B pre/postemergence morningglory; format: in vivo, Ipomoea hederacea
Method in brief: as §1

[12] = test system: sugar beet; test: Test B pre/postemergence sugar beet; format: in vivo, Beta vulgaris
Method in brief: as §1

[13] = test system: surinam grass; test: Test B pre/postemergence surinam grass; format: in vivo, Brachiaria decumbens
Method in brief: as §1

[14] = test system: pigweed; test: Test B pre/postemergence pigweed; format: in vivo, Amaranthus retroflexus
Method in brief: as §1

[15] = test system: blackgrass; test: Test B pre/postemergence blackgrass; format: in vivo, Alopecurus myosuroides
Method in brief: as §1

[16] = test system: cocklebur; test: Test B pre/postemergence cocklebur; format: in vivo, Xanthium strumarium
Method in brief: as §1

[17] = Postemergence, Rate 62 g/ha, scale 0 to 10, 0 is no effect, 10 is complete control
[18] = Postemergence, Rate 125 g/ha, scale of 0 to 10 where 0 is no effect and 10 is complete control
[19] = Postemergence, Rate 250 g/ha, scale of 0 to 10, 0 is no effect, 10 is complete control
[20] = Preemergence, Rate 62 g/ha, scale of 0 to 10 where 0 is no effect and 10 is complete control
[21] = Preemergence, Rate 250 g/ha, scale 0 to 10 (0 no effect, 10 complete control)
[22] = Preemergence, Rate 500 g/ha, scale of 0 to 10 where 0 is no effect and 10 is complete control
[23] = Rate 500 g/ha, Postemergence, scale 0 to 10, 0 is no effect, 10 is complete control
[24] = Preemergence, Rate 125 g/ha, scale of 0 to 10 where 0 is no effect and 10 is complete control
[25] = Rate 62 g/ha, flood test species, Pre-emergence, visual evaluation after twelve to sixteen days
[26] = Rate 125 g/ha, under heading Pre-emergence, flood test species, visual evaluation after twelve to sixteen days
[27] = Rate 250 g/ha, Pre-emergence (flood test species), scale 0 to 10, 0 is no effect, 10 is complete control
[28] = Rate 500 g/ha, Pre-emergence section of Table B, 0 to 10 scale (0 no effect, 10 complete control)

C=C(Cn1c(=O)on(C(=O)N(c2ccccc2)C(C)C)c1=O)C(C)C [Compound 649]
Plant response rating, Giant foxtail [1, 17]: 0 | Giant foxtail plant response rating [1, 18]: 2 | Giant foxtail plant response rating [1, 19]: 2 | Giant foxtail plant response rating [1, 20]: 0 | Plant response rating, Giant foxtail [1, 21]: 9 | Plant response rating, Giant foxtail [1, 22]: 9 | Giant foxtail plant response rating [1, 23]: 7 | Plant response rating, Corn [2, 17]: 0 | Corn plant response rating [2, 18]: 0 | Corn plant response rating [2, 19]: 0 | Corn plant response rating [2, 20]: 0 | Corn plant response rating [2, 24]: 0 | Plant response rating, Corn [2, 21]: 0 | Plant response rating, Corn [2, 22]: 0 | Corn plant response rating [2, 23]: 0 | Plant response rating, Rape [3, 17]: 0 | Rape plant response rating [3, 18]: 0 | Rape plant response rating [3, 20]: 0 | Rape plant response rating [3, 24]: 0 | Plant response rating, Rape [3, 21]: 0 | Plant response rating, Rape [3, 22]: 0 | Rape plant response rating [3, 23]: 0 | Plant response rating, Crabgrass [4, 17]: 0 | Crabgrass plant response rating [4, 18]: 2 | Crabgrass plant response rating [4, 20]: 0 | Crabgrass plant response rating [4, 24]: 1 | Plant response rating, Crabgrass [4, 21]: 5 | Plant response rating, Crabgrass [4, 22]: 9 | Bedstraw plant response rating ([5]; Rate 62 g/ha, scale of 0 to 10 where 0 is no effect and 10 is complete control): 0 | Bedstraw plant response rating ([5]; Rate 125 g/ha, scale of 0 to 10 where 0 is no effect and 10 is complete control): 0 | Plant response rating, Bedstraw ([5]; Rate 250 g/ha, scale 0 to 10 (0 no effect, 10 complete control)): 0 | Plant response rating, Bedstraw ([5]; Rate 500 g/ha, scale of 0 to 10 where 0 is no effect and 10 is complete control): 0 | Plant response rating, Rice (0 to 10 scale, 0 is no effect, 10 is complete control) [6, 25]: 0 | Rice plant response rating (0 to 10 scale, 0 is no effect, 10 is complete control) [6, 26]: 0 | Rice plant response rating [6, 27]: 0 | Rice plant response rating [6, 28]: 0 | Plant response rating, Wild oats [7, 17]: 0 | Wild oats plant response rating [7, 18]: 0 | Wild oats plant response rating [7, 20]: 0 | Wild oats plant response rating [7, 24]: 0 | Plant response rating, Wild oats [7, 21]: 0 | Plant response rating, Wild oats [7, 22]: 0 | Wild oats plant response rating [7, 23]: 0 | Plant response rating, Wheat [8, 17]: 0 | Wheat plant response rating [8, 18]: 0 | Wheat plant response rating [8, 20]: 0 | Wheat plant response rating [8, 24]: 0 | Plant response rating, Wheat [8, 21]: 0 | Plant response rating, Wheat [8, 22]: 0 | Wheat plant response rating [8, 23]: 0 | Plant response rating, Barnyardgrass (0 to 10 scale, 0 is no effect, 10 is complete control) [9, 25]: 0 | Barnyardgrass plant response rating (0 to 10 scale, 0 is no effect, 10 is complete control) [9, 26]: 0 | Barnyardgrass plant response rating [9, 27]: 0 | Barnyardgrass plant response rating [9, 28]: 2 | Plant response rating, Nutsedge [10, 17]: 0 | Nutsedge plant response rating [10, 18]: 0 | Nutsedge plant response rating [10, 20]: 0 | Nutsedge plant response rating [10, 24]: 0 | Plant response rating, Nutsedge [10, 21]: 0 | Plant response rating, Nutsedge [10, 22]: 0 | Nutsedge plant response rating [10, 23]: 0 | Plant response rating, Morningglory [11, 17]: 4 | Morningglory plant response rating [11, 18]: 7 | Morningglory plant response rating [11, 19]: 7 | Morningglory plant response rating [11, 20]: 0 | Morningglory plant response rating [11, 24]: 0 | Plant response rating, Morningglory [11, 21]: 0 | Plant response rating, Morningglory [11, 22]: 0 | Morningglory plant response rating [11, 23]: 8 | Plant response rating, Sugarbeets [12, 17]: 0 | Sugarbeets plant response rating [12, 18]: 0 | Sugarbeets plant response rating [12, 24]: 0 | Plant response rating, Sugarbeets [12, 21]: 0 | Plant response rating, Sugarbeets [12, 22]: 0 | Sugarbeets plant response rating [12, 23]: 0 | Plant response rating, B. signalgrass [13, 17]: 0 | Plant response rating, B. signalgrass [13, 18]: 0 | B. signalgrass plant response rating [13, 19]: 0 | B. signalgrass plant response rating [13, 20]: 0 | B. signalgrass plant response rating [13, 24]: 0 | Plant response rating, B. signalgrass [13, 21]: 0 | Plant response rating, B. signalgrass [13, 22]: 0 | B. signalgrass plant response rating [13, 23]: 0 | Plant response rating, Redroot pigweed [14, 17]: 0 | Redroot pigweed plant response rating [14, 18]: 0 | Redroot pigweed plant response rating [14, 20]: 0 | Redroot pigweed plant response rating [14, 24]: 0 | Plant response rating, Redroot pigweed [14, 21]: 0 | Plant response rating, Redroot pigweed [14, 22]: 0 | Redroot pigweed plant response rating [14, 23]: 0 | Plant response rating, Blackgrass [15, 17]: 0 | Blackgrass plant response rating [15, 18]: 0 | Blackgrass plant response rating [15, 19]: 0 | Blackgrass plant response rating [15, 20]: 0 | Blackgrass plant response rating [15, 24]: 0 | Plant response rating, Blackgrass [15, 21]: 0 | Plant response rating, Blackgrass [15, 22]: 0 | Blackgrass plant response rating [15, 23]: 0 | Plant response rating, Cocklebur [16, 17]: 0 | Cocklebur plant response rating [16, 18]: 0 | Cocklebur plant response rating [16, 19]: 0 | Cocklebur plant response rating [16, 20]: 0 | Cocklebur plant response rating [16, 24]: 0 | Plant response rating, Cocklebur [16, 21]: 0 | Plant response rating, Cocklebur [16, 22]: 0 | Cocklebur plant response rating [16, 23]: 2
